According to ChEMBL document CHEMBL1240323, “3D QSAR studies on a series of potent and high selective inhibitors for three kinases of RTK family” (J Mol Graph Model, 2007):

Biological target: Vascular endothelial growth factor receptor 2 (Homo sapiens, UniProt P35968)
Experiment: Inhibition of KDR

Chain of Vascular endothelial growth factor receptor 2 (P35968 whole entry): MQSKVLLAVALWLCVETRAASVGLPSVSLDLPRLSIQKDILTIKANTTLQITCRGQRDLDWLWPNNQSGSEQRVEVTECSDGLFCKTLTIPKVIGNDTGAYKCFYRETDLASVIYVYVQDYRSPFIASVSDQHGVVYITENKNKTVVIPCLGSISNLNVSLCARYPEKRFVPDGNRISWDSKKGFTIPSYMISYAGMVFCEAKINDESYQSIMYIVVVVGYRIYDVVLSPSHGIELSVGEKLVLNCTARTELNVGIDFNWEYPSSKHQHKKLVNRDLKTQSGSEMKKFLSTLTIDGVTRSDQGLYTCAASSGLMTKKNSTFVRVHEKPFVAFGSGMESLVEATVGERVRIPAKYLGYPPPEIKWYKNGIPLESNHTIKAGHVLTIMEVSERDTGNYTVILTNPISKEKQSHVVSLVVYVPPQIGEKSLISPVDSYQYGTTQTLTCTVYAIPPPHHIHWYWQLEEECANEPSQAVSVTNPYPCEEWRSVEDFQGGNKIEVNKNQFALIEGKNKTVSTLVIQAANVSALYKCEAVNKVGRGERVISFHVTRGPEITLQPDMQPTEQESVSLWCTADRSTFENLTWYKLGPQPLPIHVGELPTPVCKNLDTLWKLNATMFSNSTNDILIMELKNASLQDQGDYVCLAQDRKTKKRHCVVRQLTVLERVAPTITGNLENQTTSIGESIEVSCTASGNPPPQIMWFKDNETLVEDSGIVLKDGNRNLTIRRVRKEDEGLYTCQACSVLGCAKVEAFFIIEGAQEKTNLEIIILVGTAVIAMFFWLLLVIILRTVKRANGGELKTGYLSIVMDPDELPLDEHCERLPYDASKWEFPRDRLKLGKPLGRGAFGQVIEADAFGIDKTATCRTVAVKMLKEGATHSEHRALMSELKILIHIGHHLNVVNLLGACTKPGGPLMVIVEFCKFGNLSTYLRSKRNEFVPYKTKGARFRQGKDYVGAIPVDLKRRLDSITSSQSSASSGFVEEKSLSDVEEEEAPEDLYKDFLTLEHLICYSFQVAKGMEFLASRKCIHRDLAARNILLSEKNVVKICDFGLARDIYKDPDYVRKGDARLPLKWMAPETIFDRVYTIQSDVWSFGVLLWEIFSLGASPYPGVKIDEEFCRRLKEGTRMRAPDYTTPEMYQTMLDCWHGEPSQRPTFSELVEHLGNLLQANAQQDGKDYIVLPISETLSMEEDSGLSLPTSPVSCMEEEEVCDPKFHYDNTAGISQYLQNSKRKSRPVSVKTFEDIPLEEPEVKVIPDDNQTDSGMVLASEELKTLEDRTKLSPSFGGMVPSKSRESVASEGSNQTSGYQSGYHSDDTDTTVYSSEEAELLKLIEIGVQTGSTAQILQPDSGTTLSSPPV

Structure (SMILES): Cc1sc2ncnc(N)c2c1-c1ccc(NC(=O)Nc2cc(C(F)(F)F)ccc2F)cc1
- IC50: 0.0457 µM
